US12606568B2, “SMARCA degraders and uses thereof” (Kymera Therapeutics, Inc., priority 2020, dated 2026)

Legend:
Format in all cases: cell-based
SMARCA4 = biological target: T1, SMARCA4 (Homo sapiens, UniProt P51532); test: SMARCA4 Western blot MV4-11 degradation; conditions: for Dmax: MV4-11, MV4-11 cells, read-out: SMARCA4 MSD MV411 degradation 24 h: average Dmax %; for Dmax / DC50: 24 h; for DC50 / SMARCA4 MSD MV411 degradation 24 h: average Dmax %: MV4-11 cells; for DC50: read-out: SMARCA4 MSD MV411 degradation 24 h: Mean external-Abs DC50
T1 construct: SMARCA2 and SMARCA4 protein degradation in MV4-11 cells; endogenous in cells; host or cells: MV4-11
Experimental: (§1) Example 54. SMARCA2 and SMARCA 4 Western Blot MV4-11 Degradation
(§2) Cells were seeded into 6-well plates (MV4-11: 4×10^6 cells/well/1 ml) and 1 ml of 2× compound solution was added into the well to make the final concentration and the plates were mixed well and incubated for 24 hours (No cytotoxicity was observed). The cell were collected with media and spun at 3000 rpm for 5 minutes. The supernatant was aspirated and the well and the cells were washed with cold PBS once and combined for centrifugation again; the supernatant aspirated again. 200 ul pre-chilled RIPA lysis buffer (Boston BioProducts BP-115D) with protease/phosphatase inhibitor (Roche 05892791001/Roche 04906837001) was directly added into the tube to lyze the cells for 20 minutes on ice. The cell lysate were collected into EP tubes and spun at 13000 rpm for 20 minutes and 72 ul supernatant was transferred to a fresh EP tube containing 18 ul of 5× loading buffer (Beyotime Bio P0015) to make the loading samples. The samples were heated to 100° C. for 10 minutes and cooled to RT and microcentrifuged. 20 ul of samples were loaded onto SDS-PAGE gel (Novex, WG1402BOX) and the gel was run at 80 V for 20 minutes and 120 V for 1.5 hours. The samples were electrotransfer to a NC membrane using wet-transfer method with 250 mA for 2.5 hours. The membrane was blocked with LICOR blocking buffer (LI-COR, 927-50000) for 1 hour. The membrane was washed three times with TBST (CST #9997S), 5 minutes each. Incubation was performed with primary antibody prepared in blocking buffer with 0.1% Tween-20 (Solarbio, P8220) at 4° C. overnight (Anti-SMARCA2/BRM antibody (ab15597) 1:500; Anti-BRG1 antibody [EPR3912] (ab108318) 1:1000; Rabbit anti-Baf180 antibody [EPR15860] (Abcam, ab196022) 1:1000; mouse anti-beta-Actin (8H10D10) (CST #3700) 1:10000). The membrane was washed three times with TBST, 5 minutes each. Incubation with secondary antibody was performed for 1 hour at RT (anti-rabbit IgG (Licor, 926-32211) 1:5000; anti-mouse IgG (LI-COR, 926-68070) 1:5000). The membrane was washed three times with TBST, 5 minutes each and lastly the LiCOR was read.
(§3) The letter codes for SMARCA degradation potency (DC50) include: A (<100 nM), B (100-500 nM), C (501-1000 nM), and D (>1000 nM). The letter codes for the percentage of SMARCA degradation after 24 hours (Dmax %) include: A (>90% degradation), B (>70-90% degradation), C (50-70% degradation), and D (<50% degradation).

SMARCA2 [1] = biological target: T2, SMARCA2 (Homo sapiens, UniProt P51531); test: MSD SMARCA2 degradation in A549 cell line; set-up: endogenous in cells; conditions: for Dmax: A549, A549 cells; for Dmax / DC50: 24 h; for DC50 / SMARCA2 MSD A549 degradation 24 h: Average Dmax %: A549 cells; for DC50: read-out: SMARCA2 MSD A549 degradation 24 h: Average external-Abs DC50
Experimental: Example 53. MSD SMARCA2 Degradation in A549 Cell Line
Cells were seeded into 96-well plates (A549 cells: 2×10^4 cells/well/100 ul media) abd incubated overnight. The next day, 200 nl compound were added into the intermediate plate with Echo (Labcyte 550) from source plate containing a 3-fold serial dilution from top concentration of 1 mM. The culture medium was changed with 80 ul of fresh medium and 80 ul of 2× compound solution was added into the well to make a final concentration of 1000 nM, 333.3 nM, 111.1 nM, 37.04 nM, 12.35 nM, 4.115 nM, 1.372 nM, 0.457 nM, 0.152 nM and 0 nM (DMSO). The wells were mixed and then incubated for 24 hours. The media was aspirated from the cultures and 60 ul pre-chilled PIPA lysis buffer (Boston BioProducts BP-115D) with protease/phosphatase inhibitor (Roche 05892791001/Roche 04906837001) was added into the well to lyze the cells for 20 minutes at 4° C. The MSD plate (L15XA) was coated with 40 ul cell lysate and incubated at 4° C. overnight. The next day, the plate was washed three times with TBST (CST #9997S), 150 ul/well. The MSD plates was blocked with 150 ul blocking buffer per well and shaked for 1 hr at R^†, 600 rpm. The blocking buffer was 3% Blocker A (MSD, R93BA-4) in TBST. The MSD plate was washed three times with 150 ul/well of TBST and 25 ul/well of detection antibody (Rabbit anti-SMARCA2/BRM antibody, 100 μg/ml, ab223735) was added at final concentration of 1 ug/mi diluted in 1% o Blocking buffer and shaken for 1 hour at R^†, 600 rpm. The MSD plate was washed three times with 150 ul/well of TBST and 25 ul/well of SULFO-TAG anti-rabbit antibody (MSD, R32AB-1) was added at final concentration of 1 μg/ml diluted in […] Blocking buffer and shaken for 1 hour at R^†, 600 rpm. The MSD plate was washed three times with 150 ul/well of TBST and 150 ul/well of 2×MSD reading buffer diluted from 4× (MSD, R92TC-2) with water was added. Lastly, the MSD instrument was read.
as §3, with “SMARCA2” for “SMARCA”, “% o)” for “%)”, “(>90% o” for “(>90%”, “(>70-90% o” for “(>70-90%”, “(50-70% o” for “(50-70%”

SMARCA2 [2] = biological target: T2, SMARCA2; test: SMARCA2 Western blot MV4-11 degradation; set-up: SMARCA2 and SMARCA4 protein degradation in MV4-11 cells; endogenous in cells; host or cells: MV4-11; conditions: for Dmax: MV4-11, MV4-11 cells, read-out: SMARCA2 MSD MV411 degradation 24 h: average Dmax %; for Dmax / DC50: 24 h; for DC50 / SMARCA2 MSD MV411 degradation 24 h: average Dmax %: MV4-11 cells; for DC50: read-out: SMARCA2 MSD MV411 degradation 24 h: Mean external-Abs DC50
Experimental: as §1, §2, §3

T1 sequence (P51532 whole entry): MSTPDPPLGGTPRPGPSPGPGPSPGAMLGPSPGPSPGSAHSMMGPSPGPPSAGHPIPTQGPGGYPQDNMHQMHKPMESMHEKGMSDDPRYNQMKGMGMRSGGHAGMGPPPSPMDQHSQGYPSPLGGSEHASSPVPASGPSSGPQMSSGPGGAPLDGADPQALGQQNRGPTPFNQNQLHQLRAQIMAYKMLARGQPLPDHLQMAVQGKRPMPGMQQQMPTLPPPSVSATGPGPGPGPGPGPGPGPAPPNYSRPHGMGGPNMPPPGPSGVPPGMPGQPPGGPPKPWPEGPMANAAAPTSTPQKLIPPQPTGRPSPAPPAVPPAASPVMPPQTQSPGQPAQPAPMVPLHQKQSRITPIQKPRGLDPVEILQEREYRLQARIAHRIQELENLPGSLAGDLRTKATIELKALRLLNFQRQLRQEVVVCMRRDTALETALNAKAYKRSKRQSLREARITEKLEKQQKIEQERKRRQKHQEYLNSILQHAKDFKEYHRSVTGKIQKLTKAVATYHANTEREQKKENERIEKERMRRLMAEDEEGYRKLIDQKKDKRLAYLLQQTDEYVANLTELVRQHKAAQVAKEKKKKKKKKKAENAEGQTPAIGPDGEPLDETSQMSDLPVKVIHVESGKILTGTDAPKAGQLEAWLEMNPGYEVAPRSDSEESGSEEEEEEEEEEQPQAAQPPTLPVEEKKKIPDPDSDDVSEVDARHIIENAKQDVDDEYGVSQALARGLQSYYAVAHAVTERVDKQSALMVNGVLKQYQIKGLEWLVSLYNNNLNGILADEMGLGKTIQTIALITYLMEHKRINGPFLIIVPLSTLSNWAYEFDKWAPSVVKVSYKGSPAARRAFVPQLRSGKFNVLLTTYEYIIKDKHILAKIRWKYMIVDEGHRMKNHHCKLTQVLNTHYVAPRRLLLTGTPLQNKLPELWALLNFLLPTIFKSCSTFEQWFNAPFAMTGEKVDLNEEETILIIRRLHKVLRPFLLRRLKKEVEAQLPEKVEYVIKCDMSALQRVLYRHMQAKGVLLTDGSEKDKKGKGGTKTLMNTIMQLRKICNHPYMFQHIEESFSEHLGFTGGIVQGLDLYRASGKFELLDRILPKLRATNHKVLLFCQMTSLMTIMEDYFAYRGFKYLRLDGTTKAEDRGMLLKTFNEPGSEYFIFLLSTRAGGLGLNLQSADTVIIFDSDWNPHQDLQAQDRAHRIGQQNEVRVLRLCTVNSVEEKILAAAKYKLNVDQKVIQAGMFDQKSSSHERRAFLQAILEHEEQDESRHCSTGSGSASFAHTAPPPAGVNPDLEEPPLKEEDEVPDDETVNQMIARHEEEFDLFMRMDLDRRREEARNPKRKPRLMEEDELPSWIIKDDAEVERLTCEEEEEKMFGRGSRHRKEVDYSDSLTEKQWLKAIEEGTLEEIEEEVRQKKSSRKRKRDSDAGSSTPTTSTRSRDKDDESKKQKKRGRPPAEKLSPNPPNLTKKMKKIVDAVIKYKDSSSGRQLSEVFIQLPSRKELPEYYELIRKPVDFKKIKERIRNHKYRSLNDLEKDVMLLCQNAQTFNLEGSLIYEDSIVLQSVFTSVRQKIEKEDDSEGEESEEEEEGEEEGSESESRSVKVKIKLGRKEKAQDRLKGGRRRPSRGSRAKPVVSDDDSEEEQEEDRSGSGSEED
T2 sequence (P51531 whole entry): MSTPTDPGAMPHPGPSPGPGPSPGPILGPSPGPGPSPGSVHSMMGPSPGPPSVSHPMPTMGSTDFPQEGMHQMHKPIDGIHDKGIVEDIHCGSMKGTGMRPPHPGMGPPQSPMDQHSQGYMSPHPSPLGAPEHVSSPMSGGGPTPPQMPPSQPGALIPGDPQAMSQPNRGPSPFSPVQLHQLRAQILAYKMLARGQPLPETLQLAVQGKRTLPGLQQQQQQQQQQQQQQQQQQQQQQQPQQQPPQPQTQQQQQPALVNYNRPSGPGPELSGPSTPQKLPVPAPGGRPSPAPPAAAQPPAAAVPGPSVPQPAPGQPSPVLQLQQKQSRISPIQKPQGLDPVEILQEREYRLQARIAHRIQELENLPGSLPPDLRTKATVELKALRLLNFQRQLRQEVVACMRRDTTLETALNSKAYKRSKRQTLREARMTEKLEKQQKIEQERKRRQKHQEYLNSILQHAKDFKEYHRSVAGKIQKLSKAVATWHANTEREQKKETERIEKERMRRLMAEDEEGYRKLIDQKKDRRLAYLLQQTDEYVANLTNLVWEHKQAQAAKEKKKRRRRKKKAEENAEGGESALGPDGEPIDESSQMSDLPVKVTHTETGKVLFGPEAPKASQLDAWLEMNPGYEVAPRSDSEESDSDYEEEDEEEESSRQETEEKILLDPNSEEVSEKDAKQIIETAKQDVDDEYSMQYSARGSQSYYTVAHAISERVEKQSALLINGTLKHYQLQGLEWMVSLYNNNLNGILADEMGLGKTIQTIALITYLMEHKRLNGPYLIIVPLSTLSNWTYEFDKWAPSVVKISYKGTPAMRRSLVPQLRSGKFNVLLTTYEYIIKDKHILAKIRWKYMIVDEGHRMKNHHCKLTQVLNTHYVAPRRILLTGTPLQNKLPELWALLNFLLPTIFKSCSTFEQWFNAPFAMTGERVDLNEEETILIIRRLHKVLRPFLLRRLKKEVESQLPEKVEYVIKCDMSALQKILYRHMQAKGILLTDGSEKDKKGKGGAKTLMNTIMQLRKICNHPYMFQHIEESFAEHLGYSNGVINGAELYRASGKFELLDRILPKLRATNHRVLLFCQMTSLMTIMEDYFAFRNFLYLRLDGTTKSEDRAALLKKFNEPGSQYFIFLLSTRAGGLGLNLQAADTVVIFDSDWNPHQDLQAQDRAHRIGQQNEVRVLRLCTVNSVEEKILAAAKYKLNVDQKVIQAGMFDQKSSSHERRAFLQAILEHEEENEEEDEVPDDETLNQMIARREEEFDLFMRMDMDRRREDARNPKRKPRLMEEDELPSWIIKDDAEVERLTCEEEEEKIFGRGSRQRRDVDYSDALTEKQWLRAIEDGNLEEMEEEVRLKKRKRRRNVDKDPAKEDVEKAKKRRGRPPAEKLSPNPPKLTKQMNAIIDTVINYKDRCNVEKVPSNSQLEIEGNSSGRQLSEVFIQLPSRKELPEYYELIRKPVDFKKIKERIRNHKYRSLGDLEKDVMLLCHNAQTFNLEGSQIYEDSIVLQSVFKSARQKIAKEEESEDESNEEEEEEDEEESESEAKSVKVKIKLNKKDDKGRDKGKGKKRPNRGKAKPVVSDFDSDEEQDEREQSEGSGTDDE

Row | SMILES | Dmax (SMARCA4) | DC50 (SMARCA4) | Dmax (SMARCA2 [1]) | DC50 (SMARCA2 [1]) | Dmax (SMARCA2 [2]) | DC50 (SMARCA2 [2]) | SMARCA4 MSD MV411 degradation 24 h: average Dmax % (SMARCA4) | SMARCA2 MSD A549 degradation 24 h: Average Dmax % (SMARCA2 [1]) | SMARCA2 MSD MV411 degradation 24 h: average Dmax % (SMARCA2 [2])
1 | Cc1ncsc1-c1ccc(CNC(=O)[C@@H]2C[C@@H](O)CN2C(=O)C(c2cc(N3CCC(N4CCC(c5cnc(N6C7CCC6CN(c6cc(-c8ccccc8O)nnc6N)C7)nc5)CC4)CC3)no2)C(C)C)cc1 (mixture of isomers) [I-47, (2S,4R)-1-(2-(3-(4-(2-(3-(3-amino-6-(2-hydroxyphenyl)pyridazin-4-yl)-3,8-diazabicyclo[3.2.1]octan-8-yl)pyrimidin-5-yl)-[1,4′-bipiperidin]-1′-yl)isoxazol-5-yl)-3-methylbutanoyl)-4-hydroxy-N-(4-(4-methylthiazol-5-yl)benzyl)pyrrolidine-2-carboxamide] | > 90% | < 100 nM | > 90% | < 100 nM | > 90% | < 100 nM | – | – | –
2 | Cc1ncsc1-c1ccc([C@H](C)NC(=O)[C@@H]2C[C@@H](O)CN2C(=O)[C@@H](NC(=O)[C@H]2CC3(C2)C[C@H](N2CCC(c4cnc(N5C6CCC5CN(c5cc(-c7ccccc7O)nnc5N)C6)nc4)CC2)C3)C(C)(C)C)cc1 (single isomer, unassigned) [I-1] | 70 to 90% | < 100 nM | > 90% | 100 to 500 nM | 70 to 90% | < 100 nM | – | – | –
3 | Cc1ncsc1-c1ccc([C@H](C)NC(=O)[C@@H]2C[C@@H](O)CN2C(=O)[C@@H](NC(=O)[C@H]2CC3(C2)C[C@H](N2CCC(c4cnc(N5C6CCC5CN(c5cc(-c7ccccc7O)nnc5N)C6)nc4)CC2)C3)C(C)(C)C)cc1 (single isomer, unassigned) [I-2] | – | < 100 nM | – | < 100 nM | – | < 100 nM | B (B (>70-90% degradation)) | A (A (>90% o degradation)) | A (A (>90% degradation))
4 | Cc1ncsc1-c1ccc(C2(NC(=O)[C@@H]3C[C@@H](O)CN3C(=O)[C@@H](NC(=O)[C@H]3CC4(C3)C[C@H](N3CCC(c5cnc(N6C7CCC6CN(c6cc(-c8ccccc8O)nnc6N)C7)nc5)CC3)C4)C(C)(C)C)CC2)cc1 (single isomer, unassigned) [I-3] | 70 to 90% | < 100 nM | > 90% | < 100 nM | > 90% | < 100 nM | – | – | –
5 | Cc1ncsc1-c1ccc(C2(NC(=O)[C@@H]3C[C@@H](O)CN3C(=O)[C@@H](NC(=O)[C@H]3CC4(C3)C[C@H](N3CCC(c5cnc(N6C7CCC6CN(c6cc(-c8ccccc8O)nnc6N)C7)nc5)CC3)C4)C(C)(C)C)CC2)cc1 (single isomer, unassigned) [I-4] | – | < 100 nM | – | 100 to 500 nM | – | < 100 nM | A (A (>90% degradation)) | A (A (>90% o degradation)) | A (A (>90% degradation))
6 | Cc1ncsc1-c1ccc([C@H](C)NC(=O)[C@@H]2C[C@@H](O)CN2C(=O)[C@@H](NC(=O)[C@H]2CC3(C2)C[C@H](N2CCC(c4ccc(N5C6CCC5CN(c5cc(-c7ccccc7O)nnc5N)C6)cc4)CC2)C3)C(C)(C)C)cn1 (single isomer, unassigned) [I-5] | – | > 1000 nM | < 50% | > 1000 nM | < 50% | 100 to 500 nM | D (D (<50% degradation)) | – | –
7 | Cc1ncsc1-c1ccc(CNC(=O)[C@@H]2C[C@H](O)CN2C(=O)[C@@H](NC(=O)[C@H]2CC3(C2)C[C@H](N2CCC(c4cnc(N5C6CCC5CN(c5cc(-c7ccccc7O)nnc5N)C6)nc4)CC2)C3)C(C)(C)C)cc1 (stereo partly drawn) [I-80, (2S,4S)-1-((2S)-2-(6-(4-(2-(3-(3-amino-6-(2-hydroxyphenyl)pyridazin-4-yl)-3,8-diazabicyc-lo[3.2.1]octan-8-yl)pyrimidin-5-yl)piperidin-1-yl)spiro[3.3]heptane-2-carboxamido)-3,3-dimethylbutanoyl)-4-hydroxy-N-(4-(4-methylthiazol-5-yl)benzyl)pyrrolidine-2-carbox-amide] | – | > 1000 nM | – | > 1000 nM | – | – | – | – | –
